Experimental data: patent publication US20150336889A1, “INDOLE DERIVATIVES, PHARMACEUTICAL COMPOSITIONS CONTAINING SUCH INDOLES AND THEIR USE AS DNA METHYLATION MODULATORS” (IKERCHEM, S.L., priority 2012, published 2015)

Experiments:
A-431 = test: Cancer cell growth inhibition, A-431; assay type: cell-based; settings: Homo sapiens; Epidermoid, A-431, cell viability, 72 h
Method: (§1) Cell culture-based assays were used to evaluate the ability of compounds of the invention to inhibit cancer cell growth inhibition.
(§2) Cells were obtained from the American Type Culture Collection (ATCC) and European Collection of Cell Cultures (ECACC).
(§3) Cells were thawed in their appropriate media plus supplements (see table below). Cells were passaged at confluence by washing once in HBSS cation-free followed by a 3 minutes incubation with trypsin ([0.5 μg/ml]/EDTA [0.2 μg/ml]) (Gibco-BRL, 15400054) solution in HBSS at 37° C. (except non-adherent cell lines), and transferred to their appropriate media plus supplements. Prior to seeding at defined cell concentration, cells were recovered in medium, centrifuged and taken up in medium, and counted.
(§4) Cells were plated at 3000/5000/10000 cells/well in 100 μl media in tissue culture 96 well plates (Cultek). After 24 h, media was supplemented by 100 μl/well of diluted IPDNs at 100 μM.
(§5) The Hexosaminidase assay was used for the adherent cell lines, whereas the AlamarBlue® assay was used for the non-adherent cell lines.
(§6) Dose-response curves were generated by serial dilutions (1:1) of the compounds. […] Reagent blanks, containing media plus colorimetric reagent without cells were run on each plate. Blank values were subtracted from test values and were routinely 5-10% of uninhibited control values. Plates were incubated 72 h, and living cell number was determined by AlamarBlue® and Hexosaminidase test. The advantages of using those assays are that both can be done in the same microwell plate. AlamarBlue® assay: plates were incubated 72 h and living cell number was determined by AlamarBlue (Biosource DAL1100). After 4 h incubation at 37° C., relative fluorescent intensity, which correlates with the number of living cells, was read in a Cytofluor plate reader (Millipore) at 535/590 nm (Excitation/emission). The hexosaminidase activity was measured according to the following protocol: the media was removed and cells were washed once with PBS.
(§7) Data analysis was done by calculating the percentage of cell viability normalized in front of negative control values, which were considered as a 100%. The curve was adjusted using a sigmoidal dose-response (variable slope) equation and EC50 values were obtained from the equation
(§8) where, X is the logarithm of concentration. Y is the response. Bottom is the Y value at the bottom plateau Top is the Y value at the top plateau LogEC50 is the X value when the response is halfway between Bottom and Top. With different kinds of variables, this variable is sometimes called ED50 (effective dose, 50%), or IC50 (inhibitory concentration, 50%, used when the curve goes downhill).

U-87MG = test: Cancer cell growth inhibition, U-87MG; assay type: cell-based; settings: Homo sapiens, Brain, cell viability, 72 h
Method: as §1, §2, §3, §4, §5, §6, §7, §8

Jurkat = test: Cancer cell growth inhibition, Jurkat; assay type: cell-based; settings: Homo sapiens, Hematologic, cell viability, 72 h
Method: as §1, §2, §3, §4, §5, §6, §7, §8

MDA-MB-468 = test: Cancer cell growth inhibition, MDA-MB-468; assay type: cell-based; settings: Homo sapiens; Breast, MDA-MB-468, cell viability, 72 h
Method: as §1, §2, §3, §4, §5
as §6, with “PBS. […]” for “PBS.”

Panc-1 = test: Cancer cell growth inhibition, Panc-1; assay type: cell-based; settings: Homo sapiens; Pancreatic, Panc-1, cell viability, 72 h
Method: as §1, §2, §3, §4, §5, §6, §7, §8

143B = test: Cancer cell growth inhibition, 143B; assay type: cell-based; settings: Homo sapiens, Osteosarcoma, cell viability, 72 h
Method: as §1, §2, §3, §4, §5, §6, §7, §8

LnCaP = test: Cancer cell growth inhibition, LnCaP; assay type: cell-based; settings: Homo sapiens, Prostate, cell viability, 72 h
Method: as §1, §2, §3, §4, §5, §6, §7, §8

HCT-116 = test: Cancer cell growth inhibition, HCT-116; assay type: cell-based; settings: Homo sapiens; Colorectal, HCT-116, cell viability, 72 h
Method: as §1, §2, §3, §4, §5, §6, §7, §8

NCI-H358 = test: Cancer cell growth inhibition, NCI-H358; assay type: cell-based; settings: Homo sapiens; Lung, NCI-H358, cell viability, 72 h
Method: as §1, §2, §3, §4, §5, §6, §7, §8

MDA-MB-435 = test: Cancer cell growth inhibition, MDA-MB-435; assay type: cell-based; settings: Homo sapiens; Melanoma, MDA-MB-435, cell viability, 72 h
Method: as §1, §2, §3, §4, §5, §6, §7, §8

HT-29 = test: Cancer cell growth inhibition, HT-29; assay type: cell-based; settings: Homo sapiens; Colorectal, HT-29, cell viability, 72 h
Method: as §1, §2, §3, §4, §5
as §6, with “PBS. […]” for “PBS.”

PC3 = test: Cancer cell growth inhibition, PC3; assay type: cell-based; settings: Homo sapiens, PC-3; Prostate, PC3, cell viability, 72 h
Method: as §1, §2, §3, §4, §5, §6, §7, §8

Daoy = test: Cancer cell growth inhibition, Daoy; assay type: cell-based; settings: Homo sapiens, Brain, cell viability, 72 h
Method: as §1, §2, §3, §4, §5, §6, §7, §8

Human DNMT1 = target: T1, Human DNMT1 (Homo sapiens, UniProt P26358); test: DNMT1 enzymatic activity inhibition, radioisotope-based 3H-SAM filter binding assay; assay type: biochemical; settings: 1 μM SAM, 25 nM DNMT1, 0.005 mg/ml Poly(dI-dC), 30° C. 1 hour, 10-dose
T1 construct: a-a 2-1632, with N-terminal GST tag; GST (N)
Method: The inhibition of the enzymatic activity of DNMT1 was tested using low volume radioisotope-based assay which uses tritium-labeled AdoMet (^3H-SAM) as a methyl donor. Inhibitors diluted in DMSO were added by using acoustic technology (Echo550, Labcyte Inc. Sunnyvale, Calif.) into enzyme/substrate mixture in nano-liter range. The reaction was initiated by the addition of ^3H-SAM, and incubated at 30° C. for 1 hour. Total final methylations on the substrate poly(dI-dC) were detected by a filter binding approach. Data analysis was performed using GraphPad Prism software (La Jolla, Calif.) for IC50 curve fits.

RAMOS = test: Cancer cell growth inhibition, RAMOS; assay type: cell-based; settings: Homo sapiens, Hematologic, cell viability, 72 h
Method: as §1, §2, §3, §4, §5, §6, §7, §8

CCFR-CEM = test: Cancer cell growth inhibition, CCFR-CEM; assay type: cell-based; settings: Hematologic, cell viability, 72 h
Method: as §1, §2, §3, §4, §5, §6, §7, §8

A-549 = test: Cancer cell growth inhibition, A-549; assay type: cell-based; settings: Homo sapiens, A549; Lung, A-549, cell viability, 72 h
Method: as §1, §2, §3, §4, §5, §6, §7, §8

LoVo = test: Cancer cell growth inhibition, LoVo; assay type: cell-based; settings: Homo sapiens, Colorectal, cell viability, 72 h
Method: as §1, §2, §3, §4, §5
as §6, with “PBS. […]” for “PBS.”

Colo205 = test: Cancer cell growth inhibition, Colo205; assay type: cell-based; settings: Homo sapiens, COLO 205; Colorectal, Colo205, cell viability, 72 h
Method: as §1, §2, §3, §4, §5
as §6, with “PBS. […]” for “PBS.”

T47D = test: Cancer cell growth inhibition, T47D; assay type: cell-based; settings: Homo sapiens, Breast, cell viability, 72 h
Method: as §1, §2, §3, §4, §5, §6, §7, §8

NCI-H1975 = test: Cancer cell growth inhibition, NCI-H1975; assay type: cell-based; settings: Homo sapiens; Lung, NCI-H1975, cell viability, 72 h
Method: as §1, §2, §3, §4, §5, §6, §7, §8

LS174T = test: Cancer cell growth inhibition, LS174T; assay type: cell-based; settings: Homo sapiens, Colorectal, cell viability, 72 h
Method: as §1, §2
as §3, with “counted. […]” for “counted.”
(§9) Dose-response curves were generated by serial dilutions (1:1) of the compounds. […] Plates were incubated 72 h, and living cell number was determined by AlamarBlue® and Hexosaminidase test. […] AlamarBlue® assay: plates were incubated 72 h and living cell number was determined by AlamarBlue (Biosource DAL1100). After 4 h incubation at 37° C., relative fluorescent intensity, which correlates with the number of living cells, was read in a Cytofluor plate reader (Millipore) at 535/590 nm (Excitation/emission). The hexosaminidase activity was measured according to the following protocol: the media was removed and cells were washed once with PBS. […]

NCI-H1650 = test: Cancer cell growth inhibition, NCI-H1650; assay type: cell-based; settings: Homo sapiens; Lung, NCI-H1650, cell viability, 72 h
Method: as §1, §2, §3, §4, §5
as §6, with “PBS. […]” for “PBS.”

SK-MEL-28 = test: Cancer cell growth inhibition, SK-MEL-28; assay type: cell-based; settings: Homo sapiens; Melanoma, SK-MEL-28, cell viability, 72 h
Method: as §1, §2, §3, §4, §5
as §6, with “PBS. […]” for “PBS.”

K562 = test: Cancer cell growth inhibition, K562; assay type: cell-based; settings: Homo sapiens; Hematologic, K562, cell viability, 72 h
Method: as §1, §2, §3, §4, §5
as §6, with “PBS. […]” for “PBS.”

DU-145 = test: Cancer cell growth inhibition, DU-145; assay type: cell-based; settings: Homo sapiens; Prostate, DU-145, cell viability, 72 h
Method: as §1, §2, §3, §4, §5
as §6, with “PBS. […]” for “PBS.”

U-373MG = test: Cancer cell growth inhibition, U-373MG; assay type: cell-based; settings: Homo sapiens, U373 MG, Brain, cell viability, 72 h
Method: as §1, §2, §3, §4, §5
as §6, with “PBS. […]” for “PBS.”

MCF-7 = test: Cancer cell growth inhibition, MCF-7; assay type: cell-based; settings: Homo sapiens, MCF7; Breast, MCF-7, cell viability, 72 h
Method: as §1, §2, §3, §4, §5, §6, §7, §8

RPMI-8226 = test: Cancer cell growth inhibition, RPMI-8226; assay type: cell-based; settings: Homo sapiens; Multiple Myelome, RPMI-8226, cell viability, 72 h
Method: as §1, §2, §3, §4, §5, §6, §7, §8

SW-480 = test: Cancer cell growth inhibition, SW-480; assay type: cell-based; settings: Homo sapiens, SW480; Colorectal, SW-480, cell viability, 72 h
Method: as §1, §2
as §3, with “counted. […]” for “counted.”
as §9

HT-1080 = test: Cancer cell growth inhibition, HT-1080; assay type: cell-based; settings: Homo sapiens; HT-1080, cell viability, 72 h
Method: as §1, §2, §3, §4, §5, §6, §7, §8

SK-OV-3 = test: Cancer cell growth inhibition, SK-OV-3; assay type: cell-based; settings: Homo sapiens; Ovarian, SK-OV-3, cell viability, 72 h
Method: as §1, §2, §3, §4, §5
as §6, with “PBS. […]” for “PBS.”

MiaPaCa-2 = test: Cancer cell growth inhibition, MiaPaCa-2; assay type: cell-based; settings: Homo sapiens, MIA PaCa-2; Pancreatic, MiaPaCa-2, cell viability, 72 h
Method: as §1, §2, §3, §4, §5, §6, §7, §8

T1 sequence (P26358 2-1632 isoform P26358-2): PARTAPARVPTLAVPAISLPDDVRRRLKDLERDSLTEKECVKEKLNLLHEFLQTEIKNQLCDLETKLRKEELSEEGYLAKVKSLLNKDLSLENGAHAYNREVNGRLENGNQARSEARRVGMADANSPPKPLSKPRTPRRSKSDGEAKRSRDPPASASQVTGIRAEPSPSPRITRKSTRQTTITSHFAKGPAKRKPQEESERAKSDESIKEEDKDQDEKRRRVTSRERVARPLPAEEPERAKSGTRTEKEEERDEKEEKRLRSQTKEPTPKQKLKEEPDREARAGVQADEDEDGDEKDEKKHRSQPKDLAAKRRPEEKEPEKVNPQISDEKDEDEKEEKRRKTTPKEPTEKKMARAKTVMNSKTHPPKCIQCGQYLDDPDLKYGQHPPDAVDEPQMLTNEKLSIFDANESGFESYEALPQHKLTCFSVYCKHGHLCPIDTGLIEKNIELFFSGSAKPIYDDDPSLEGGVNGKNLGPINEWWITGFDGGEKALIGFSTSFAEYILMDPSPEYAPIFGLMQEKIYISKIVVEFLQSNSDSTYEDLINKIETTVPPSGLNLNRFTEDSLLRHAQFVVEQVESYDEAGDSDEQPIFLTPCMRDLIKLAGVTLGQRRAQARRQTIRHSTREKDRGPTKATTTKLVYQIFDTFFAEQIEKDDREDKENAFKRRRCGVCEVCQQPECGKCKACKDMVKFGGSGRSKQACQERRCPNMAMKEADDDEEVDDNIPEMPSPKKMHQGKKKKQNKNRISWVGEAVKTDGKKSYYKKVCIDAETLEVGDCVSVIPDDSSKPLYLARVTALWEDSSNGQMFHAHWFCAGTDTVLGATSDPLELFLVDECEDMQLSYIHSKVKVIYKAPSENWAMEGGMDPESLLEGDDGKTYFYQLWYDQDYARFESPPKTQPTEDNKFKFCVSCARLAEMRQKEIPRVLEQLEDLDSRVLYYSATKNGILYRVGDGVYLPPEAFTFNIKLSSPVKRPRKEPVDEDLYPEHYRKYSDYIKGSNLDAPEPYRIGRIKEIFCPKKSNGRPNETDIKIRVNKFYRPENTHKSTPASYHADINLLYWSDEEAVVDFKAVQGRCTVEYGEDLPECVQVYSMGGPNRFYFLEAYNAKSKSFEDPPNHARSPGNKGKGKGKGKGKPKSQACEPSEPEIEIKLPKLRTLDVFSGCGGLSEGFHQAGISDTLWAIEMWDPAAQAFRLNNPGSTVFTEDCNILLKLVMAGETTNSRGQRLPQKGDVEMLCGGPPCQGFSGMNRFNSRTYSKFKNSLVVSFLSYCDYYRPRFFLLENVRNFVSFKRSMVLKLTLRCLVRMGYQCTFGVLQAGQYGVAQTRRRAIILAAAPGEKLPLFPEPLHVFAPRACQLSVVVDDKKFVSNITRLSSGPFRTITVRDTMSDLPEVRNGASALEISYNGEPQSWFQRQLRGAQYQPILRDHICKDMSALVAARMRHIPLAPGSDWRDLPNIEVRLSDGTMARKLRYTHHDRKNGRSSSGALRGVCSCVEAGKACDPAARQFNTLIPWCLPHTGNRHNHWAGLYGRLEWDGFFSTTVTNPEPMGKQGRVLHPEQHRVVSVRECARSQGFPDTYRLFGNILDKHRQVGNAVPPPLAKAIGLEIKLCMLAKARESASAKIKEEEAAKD

SMILES	EC50 (U-87MG)	EC50 (Jurkat)	EC50 (Panc-1)	EC50 (143B)	EC50 (LnCaP)	EC50 (HCT-116)	EC50 (NCI-H358)	EC50 (MDA-MB-435)	EC50 (PC3)	EC50 (Daoy)	IC50 (Human DNMT1)	EC50 (RAMOS)	EC50 (CCFR-CEM)	EC50 (A-549)	also measured
COc1cc(OC)c2c(-c3ccc(O)c(O)c3)cn(CC(=O)c3ccc(O)c(O)c3)c2c1 [Example 8, 1-(3,4-dihydroxyphenyl)-2-[3-(3,4-dihydroxyphenyl)-4,6-dimethoxy-1H-indol-1-yl]ethanone]	22 µM	56 µM	55 µM	19 µM	27 µM	96 µM	50 µM	23 µM	48 µM	50 µM	6.85 µM	55 µM	34 µM	93 µM	EC50 (A-431): 59 µM; EC50 (MDA-MB-468): 94 µM; EC50 (HT-29): 59 µM
COc1cc(OC)c2c(-c3ccc(O)c(O)c3O)cn(CC(=O)c3ccc(O)c(O)c3O)c2c1 [Example 11, 2-[4,6-dimethoxy-3-(2,3,4-trihydroxyphenyl)-1H-indol-1-yl]-1-(2,3,4-trihydroxyphenyl)ethanone]	50 µM	8.9 µM	23 µM	99 µM	30 µM	22 µM	51 µM	11 µM	26 µM	6.6 µM	39.4 µM	12 µM	7.6 µM	35 µM	EC50 (LoVo): 50 µM; EC50 (Colo205): 24 µM; EC50 (T47D): 30 µM; EC50 (NCI-H1975): 30 µM; EC50 (LS174T): 62 µM; EC50 (NCI-H1650): 57 µM; EC50 (SK-MEL-28): 33 µM; EC50 (K562): 69 µM; EC50 (DU-145): 47 µM; EC50 (U-373MG): 58 µM; EC50 (MCF-7): 12 µM; EC50 (RPMI-8226): 60 µM; EC50 (SW-480): 24 µM; EC50 (HT-1080): 20 µM; EC50 (SK-OV-3): 73 µM; EC50 (MiaPaCa-2): 65 µM
